# Earlier results, collected in patent US20050147629A1, “Pharmaceutical formulation comprising non-peptide renin inhibitor and surfactant” (priority 2002, published 2005).
# Conditions: readily soluble = at least 1 g per 100 ml, poorly soluble = less than 1 g per 100 ml (b7)
compound,measurement,value
COCCCOc1cc(C[C@@H](C[C@H](N)[C@@H](O)C[C@H](C(=O)NCC(C)(C)C(N)=O)C(C)C)C(C)C)ccc1OC [formula Ia],solubility in water,very readily soluble in water
